Results reported in patent US7321027B2, “Small technetium-99m and rhenium labeled agents and methods for imaging tumors” (President and Fellows of Harvard College, priority 2000, dated 2008).

What was measured:
[1] = Determination of lipophilicity and pKa values by HPLC; format: physicochemical; conditions: HPLC method
Description: The physicochemical parameters of the rhenium complexes, i.e. lipophilicity log P, log D(pH 7.4), and pKa (Table 2) were determined using HPLC methods (Braumann, T.; Grimme, L. H. Determination of Hydrophobic Parameters for Pyridazinone Herbicides by Liquid-Liquid Partition and Reversed-Phase High-Performance Liquid Chromatography. J. Chromatogr. 1981, 206, 7-15; Stytli, C.; Theobald, A. E. Determination of Ionization Constants of Radiopharmaceuticals in Mixed Solvents by HPLC. Appl. Radiat. Isot., 1987, 38, 701-708; Johannsen, B.; Scheunemann, M.; Spies, H.; Brust, P.; Wober, J.; Syhre, R.; Pietzsch, H.-J. Technetium(V) and Rhenium(V) Complexes for 5-HT2A Serotonin Receptor Binding: Structure-Affinity Considerations. Nucl. Med. Biol., 1996, 23, 429-438; and Johannsen, B.; Berger, R.; Brust, P.; Pietzsch, H.-J; Scheunemann, M.; Seifert, S.; Spies, H.; Syhre, R. Structural Modification of Receptor-Binding Technetium-99m Complexes in Order to Improve Brain Uptake. Eur. J. Nucl. Med. 1997, 24, 316-319). […] Since log D(pH 7.4) is a composite measure of log P and pKa, the log D(PH 7.4) of Re-Compound B (1.9) is also higher than that of Re-Compound A (1.1). […] With pKa values >9 for complexes Re-Compound C and Re-Compound D, the resulting low log D(PH 7.4) values of −0.5 (Re-Compound C) and 0.7 (Re-Compound D) are not surprising, since the complexes would exist in a protonated form at pH 7.4.
Determination of Lipophilicity and pKa Values. The lipophilicity and pKa values of all complexes were determined using HPLC methods described previously (Stylli, C.; Theobald, A. E. Determination of Ionization Constants of 4 Radiopharmaceuticals in Mixed Solvents by HPLC. Appl. Radiat. Isot., 1987, 38, 701-708; Johannsen, B.; Scheunemann, M.; Spies, H.; Brust, P.; Wober, J.; Syhre, R.; Pietzsch, H.-J. Technetium(V) and Rhenium(V) Complexes for 5-HT2A Serotonin Receptor Binding: Structure-Affinity Considerations. Nucl. Med. Biol., 1996, 23, 429-438; and Johannsen, B.; Berger, R.; Brust, P.; Pietzsch, H.-J.; Scheunemann, M.; Seifert, S.; Spies, H.; Syhre, R. Structural Modification of Receptor-Binding Technetium-99m Complexes in Order to Improve Brain Uptake. Eur. J. Nucl. Med. 1997, 24, 316-319). […] The mobile phase was acetonitrile:phosphate buffer (0.01 M), 3:1, v/v, with the aqueous buffer adjusted to the desired pH between 3 and 11. The capacity factor (k′) was calculated for each determination (Braumann, T.; Grimme, L. H. Determination of Hydrophobic Parameters for Pyridazinone Herbicides by Liquid-Liquid Partition and Reversed-Phase High-Performance Liquid Chromatography. J. Chromatogr. 1981, 206, 7-15; El Tayer, N.; van der Waterbeemd, H.; Testa, B. Lipophilicity Measurements of Protonated Basic Compounds by Reversed-Phase High-Performance Liquid Chromatography. II. Procedure for the Determination of a Lipophilic Index Measured by Reversed-Phase High Performance Liquid Chromatography. J. Chromatogr. 1985, 320, 305-312; and Minick, D. J.; Frenz, J. H.; Patrick, M. A.; Brent, D. A. A Comprehensive Method for Determining Hydrophobicity Constants by Reversed-Phase High-Performance Liquid Chromatography. J. Med. Chem., 1988, 31, 1923-1933) and the partition coefficient at a given pH (D or log D) were calculated from the equation: log D=a log k′+b where the parameters a and b are predetermined using standard amines. The fitted points of inflection from the sigmoidal DHPLC/pH profiles permit calculation of the pKHPLC(Stylli, C.; Theobald, A. E. Determination of Ionization Constants of Radiopharmaceuticals in Mixed Solvents by HPLC. Appl. Radiat. Isot., 1987, 38, 701-708). The aqueous ionization constants pKa were calculated from the pKHPLC values after correction with a predetermined correction factor obtained using standard amine compounds. Log P values of the neutral complexes were estimated from the respective upper plateau of the sigmoidal log D/pH curve in the alkaline range.

[2] = test system: B16/F0 murine melanoma cells; assay: In-vitro tumor-cell uptake, melanoma cells; format: cell-based; conditions: 37° C., B16/F0 cell line
Description: In-Vitro Tumor-Uptake Studies. Tumor-cell uptake studies in B16/F0 murine melanoma cells were performed with complexes Tc-(Compound A-D and H-M) at 37° C. and 4° C. Additionally, tumor-cell uptake of complex Tc-(Compound A) was investigated in another rapidly dividing MCF-7 human breast cancer cell line.
In-Vitro Cell Studies. Murine B16/F0 melanoma cells and human MCF-7 breast cancer cells were obtained from American Type Culture Collection, Manassas Va., (ATCC) and were grown in T-175 flasks in 14 mL Dulbecco's Modified Eagle Medium (D-MEM; Gibco, Life Technology, Gaithersburg, Md.) containing 4500 mg/L D-glucose, L-glutamine, and pyridoxine hydrochloride, 110 mg/L sodium pyruvate, 10% fetal bovine serum (FBS), 0.2% gentamicin and 0.5% penicillin-streptomycin solution. All cells were harvested from cell culture flasks by trypsinization with 1 mL trypsin-EDTA solution (0.25% trypsin, 1 mM EDTA×4 Na) (Gibco). After being washed with 12 mL Dulbecco's Phosphate-Buffered Saline (PBS) (Gibco), pH 7.2 (Ca^2+- and Mg^2+-free; g/L KCl, 0.20; KH2PO4, 0.20; NaCl, 8.00; Na2HPO4, 1.15), the cells were counted and resuspended in 8 mL S-MEM (Gibco) (Ca^2+ free, with reduced Mg^2+ content) and stored at 4° C. until use.
For in-vitro tumor-cell accumulation studies, 5×10^6 cells in polypropylene test tubes were incubated at 37° C. or 4° C., with intermittent agitation with 1-2 μCi (5 μL) ^99mTc-complex Tc-(Compound A-D) in a total volume of 350 μL S-MEM. At appropriate time intervals the tubes were vortexed and 8-μL samples were layered on 350 μL cold FBS in a 400-μL Eppendorf microcentrifuge tube. After centrifugation at 15,000 rpm for 2 min, the tubes were frozen in a dry ice-acetone bath. While still frozen, the bottom tip of the microcentrifuge tube containing the cell pellet was cut and placed in a counting tube. The remaining portion of the tube with the supernatant was placed in a separate counting tube. Both fractions were counted for radioactivity in a γ-counter (WALLAC, 1480 WIZARD 3″™). The amount of supernatant in the cell pellet was determined to be <1% in separate experiments. The percentage cell uptake of the ^99mTc-complex was calculated as: % uptake=[cpm(pellet)]/[cpm(pellet)+cpm(supernatant)]×100

| Compound | pKa [1] | log D(pH 7.4) [1] | maximal cell uptake [2] [%] | log P [1] |
| --- | --- | --- | --- | --- |
| CCN(CC)CCN1CC[S][99Tc]2(=[O])[S]CC[N]2C(=O)C1 (stereo not shown) [Tc-(Compound A)] | 7.7 | ≈ 1 | 43 | – |
| CCCCN(CCCC)CCN1CC[S][99Tc]2(=[O])[S]CC[N]2C(=O)C1 (stereo not shown) [Tc-(Compound B)] | 7.7 | 1.9 | 12 | 3.3 |
